Data as given in patent US20250092039A1, “GLUTARIMIDE-CONTAINING PAN-KRAS-MUTANT DEGRADER COMPOUNDS AND USES THEREOF” (Tiger Biotherapeutics Inc., priority 2022, published 2025).

Assays:
KRAS-G12V/RAF1 = KRAS-G12V/RAF1 (Homo sapiens (Human), UniProt P01116, G12V); experiment: KRAS/RAF1 binding inhibition assay (AlphaScreen)
Method in brief: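 IC50 comes from variable-slope nonlinear fits of % inhibition (relative to DMSO) against inhibitor concentration. The AlphaScreen signal tracks the interaction of GppNHp-bound KRAS G12V with the RAF1 RBD after 60 min at 4° C with compound in 2% DMSO final.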

SW620 cells = experiment: 3D cell growth inhibition of SW620 cells carrying endogenous KRAS G12V mutation (CellTiter-Glo 3D, GI50); format: cell-based; conditions: Homo sapiens, SW-620, 144 h; SW620 cells, 6 days; read-out: SW620 3D cell growth GI50
Procedure: The following day, the test compound was administered to the cells by using 1000× compound stock solution prepared in DMSO at various concentrations. 1000× compound stock solution was first diluted in culturing medium to 10×, then 10 μL compound medium was added to each well in the cell plates. After administration of the compound, the cells were then incubated at 37° C. for 6 days. Upon completion, the plates were equilibrated at room temperature for approximately 10 minutes. 100 μL of CellTiter-Glo® 3D Reagent (Promega) was added to each well. The plates were then incubated at room temperature for 30 minutes and luminescence was recorded by EnSpire plate reader (PerkinElmer).

KRAS G12V = KRAS G12V (Homo sapiens (Human), UniProt P01116, G12V); experiment: KRAS G12V degradation in SW620 cells (Western blot, DC50); format: cell-based; conditions: 24 hours
Method in brief: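 KRAS levels were quantified by fluorescent Western blot as percent of the DMSO control after 24 h of compound exposure at 37° C in homozygous KRAS G12V SW620 cells. A four-parameter variable-slope fit of the dose-response gave the half-maximal degradation concentration.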

KRAS G12V, sequence (P01116-2 other isoform, or with tags, fused parts or gaps G12V): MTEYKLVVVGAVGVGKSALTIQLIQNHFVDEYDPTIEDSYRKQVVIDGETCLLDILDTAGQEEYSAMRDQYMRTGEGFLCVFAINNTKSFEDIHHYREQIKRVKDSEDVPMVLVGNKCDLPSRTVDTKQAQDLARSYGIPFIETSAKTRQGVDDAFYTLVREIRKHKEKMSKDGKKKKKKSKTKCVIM
KRAS-G12V/RAF1, sequence (P01116-2 other isoform, or with tags, fused parts or gaps G12V): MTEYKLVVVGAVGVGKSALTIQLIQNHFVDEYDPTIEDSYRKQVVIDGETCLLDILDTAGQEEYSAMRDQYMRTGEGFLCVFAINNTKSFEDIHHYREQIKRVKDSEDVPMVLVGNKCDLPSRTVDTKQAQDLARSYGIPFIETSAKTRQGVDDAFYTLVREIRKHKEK

Row | SMILES | IC50 (KRAS-G12V/RAF1) [nM] | GI50 (SW620 cells) [nM] | DC50 (KRAS G12V) [nM]
1 | CCc1c(F)ccc2cc(O)cc(-c3ncc4c(N5CCCC(C)(O)C5)nc(OCC5(CN6CCC7(CC6)CCC(C)(N6CCN(c8ccc9c(c8)CN(C8CCC(=O)NC8=O)C9=O)CC6)CC7)CC5)nc4c3F)c12 (stereo in doubt) [Compound 167, 3-[5-[4-[3-[[1-[[7-(8-ethyl-7-fluoro-3-hydroxy-1-naphthyl)-8-fluoro-4-[(3R)-3-hydroxy-3-methyl-1-piperidyl]pyrido[4,3-d]pyrimidin-2-yl]oxymethyl]cyclopropyl]methyl]-9-methyl-3-azaspiro[5.5]undecan-9-yl]piperazin-1-yl]-1-oxo-isoindolin-2-yl]piperidine-2,6-dione] | < 20 | < 10 | 1 to 10
2 | CCc1c(F)ccc2cc(O)cc(-c3ncc4c(N5CCC[C@@](C)(O)C5)nc(OCC5(CN6CCC7(CC6)CC(CN6CCN(c8ccc9c(c8)CN([C@H]8CCC(=O)NC8=O)C9=O)CC6)C7)CC5)nc4c3F)c12 [Compound 2, (S)-3-(5-(4-((7-((1-(((7-(8-ethyl-7-fluoro-3-hydroxynaphthalen-1-yl)-8-fluoro-4-((R)-3-hydroxy-3-methylpiperidin-1-yl)pyrido[4,3-d]pyrimidin-2-yl)oxy)methyl)cyclopropyl)methyl)-7-azaspiro[3.5]nonan-2-yl)methyl)piperazin-1-yl)-1-oxoisoindolin-2-yl)piperidine-2,6-dione] | 20 to 200 | 10 to 100 | < 1
3 | CCc1c(F)ccc2cc(O)cc(-c3ncc4c(NCC5(N(C)C)CCC5)nc(OCC5(CN6CCC7(CC6)CC(CN6CCN(c8ccc9c(c8)CN([C@H]8CCC(=O)NC8=O)C9=O)CC6)C7)CC5)nc4c3F)c12 [Compound 3, (S)-3-(5-(4-((7-((1-(((4-(((1-(dimethylamino)cyclobutyl)methyl)amino)-7-(8-ethyl-7-fluoro-3-hydroxynaphthalen-1-yl)-8-fluoropyrido[4,3-d]pyrimidin-2-yl)oxy)methyl)cyclopropyl)methyl)-7-azaspiro[3.5]nonan-2-yl)methyl)piperazin-1-yl)-1-oxoisoindolin-2-yl)piperidine-2,6-dione] | > 200 | > 100 | > 100
4 | CCc1c(F)ccc2cc(O)cc(-c3ncc4c(N5CCC=CCC5)nc(OCC5(CN6CCC7(CC6)CC(CN6CCN(c8ccc9c(c8)CN([C@H]8CCC(=O)NC8=O)C9=O)CC6)C7)CC5)nc4c3F)c12 [Compound 4, (S)-3-(5-(4-((7-((1-(((7-(8-ethyl-7-fluoro-3-hydroxynaphthalen-1-yl)-8-fluoro-4-(2,3,6,7-tetrahydro-1H-azepin-1-yl)pyrido[4,3-d]pyrimidin-2-yl)oxy)methyl)cyclopropyl)methyl)-7-azaspiro[3.5]nonan-2-yl)methyl)piperazin-1-yl)-1-oxoisoindolin-2-yl)piperidine-2,6-dione] | > 200 | > 100 | > 100
5 | CCc1cccc2cc(O)cc(-c3ncc4c(N5CCC[C@@](C)(O)C5)nc(OCC5(CN6CCC(CN7CCN(c8ccc9c(c8)CN([C@H]8CCC(=O)NC8=O)C9=O)CC7)CC6)CC5)nc4c3F)c12 [Compound 6, (S)-3-(5-(4-((1-((1-(((7-(8-ethyl-3-hydroxynaphthalen-1-yl)-8-fluoro-4-((R)-3-hydroxy-3-methylpiperidin-1-yl)pyrido[4,3-d]pyrimidin-2-yl)oxy)methyl)cyclopropyl)methyl)piperidin-4-yl)methyl)piperazin-1-yl)-1-oxoisoindolin-2-yl)piperidine-2,6-dione] | 20 to 200 | < 10 | < 1
6 | CCc1c(F)ccc2cc(O)cc(-c3ncc4c(N5CCC[C@@](C)(O)C5)nc(OCC5(CN6CC(N7CC(CN8CCN(c9ccc%10c(c9)CN([C@@H]9CCC(=O)NC9=O)C%10=O)CC8)C7)C6)CC5)nc4c3F)c12 [Compound 9, (R)-3-(5-(4-((1′-((1-(((7-(8-ethyl-7-fluoro-3-hydroxynaphthalen-1-yl)-8-fluoro-4-((R)-3-hydroxy-3-methylpiperidin-1-yl)pyrido[4,3-d]pyrimidin-2-yl)oxy)methyl)cyclopropyl)methyl)-[1,3′-biazetidin]-3-yl)methyl)piperazin-1-yl)-1-oxoisoindolin-2-yl)piperidine-2,6-dione] | < 20 | 10 to 100 | 1 to 10
7 | CCc1c(F)ccc2cc(O)cc(-c3ncc4c(N5CCC[C@@](C)(O)C5)nc(OCC5(CN6CCN(CC7CCN(c8ccc9c(c8)CN([C@H]8CCC(=O)NC8=O)C9=O)CC7)CC6)CC5)nc4c3F)c12 [Compound 10, (S)-3-(5-(4-((4-((1-(((7-(8-ethyl-7-fluoro-3-hydroxynaphthalen-1-yl)-8-fluoro-4-((R)-3-hydroxy-3-methylpiperidin-1-yl)pyrido[4,3-d]pyrimidin-2-yl)oxy)methyl)cyclopropyl)methyl)piperazin-1-yl)methyl)piperidin-1-yl)-1-oxoisoindolin-2-yl)piperidine-2,6-dione] | 20 to 200 | < 10 | < 1
8 | CCc1c(F)ccc2cc(O)cc(-c3ncc4c(N5CCC[C@@](C)(O)C5)nc(OCC5(CN6CC7(CC(CN8CCN(c9ccc%10c(c9)CN([C@@H]9CCC(=O)NC9=O)C%10=O)CC8)C7)C6)CC5)nc4c3F)c12 [Compound 11, (R)-3-(5-(4-((2-((1-(((7-(8-ethyl-7-fluoro-3-hydroxynaphthalen-1-yl)-8-fluoro-4-((R)-3-hydroxy-3-methylpiperidin-1-yl)pyrido[4,3-d]pyrimidin-2-yl)oxy)methyl)cyclopropyl)methyl)-2-azaspiro[3.3]heptan-6-yl)methyl)piperazin-1-yl)-1-oxoisoindolin-2-yl)piperidine-2,6-dione] | < 20 | 10 to 100 | 1 to 10
9 | CCc1c(F)ccc2cc(O)cc(-c3ncc4c(N5CCC[C@@](C)(O)C5)nc(OCC5(CN6CCC(O)(CN7CCN(c8ccc9c(c8)CN([C@H]8CCC(=O)NC8=O)C9=O)CC7)CC6)CC5)nc4c3F)c12 [Compound 13, (S)-3-(5-(4-((1-((1-(((7-(8-ethyl-7-fluoro-3-hydroxynaphthalen-1-yl)-8-fluoro-4-((R)-3-hydroxy-3-methylpiperidin-1-yl)pyrido[4,3-d]pyrimidin-2-yl)oxy)methyl)cyclopropyl)methyl)-4-hydroxypiperidin-4-yl)methyl)piperazin-1-yl)-1-oxoisoindolin-2-yl)piperidine-2,6-dione] | < 20 | 10 to 100 | 1 to 10
10 | CCc1c(F)ccc2cc(O)cc(-c3ncc4c(N5CCC[C@@](C)(O)C5)nc(OCC5(CN6CCC(CN7CCN(c8ccc(C9CCC(=O)NC9=O)cc8)CC7)CC6)CC5)nc4c3F)c12 (stereo partly drawn) [Compound 14, 3-(4-(4-((1-((1-(((7-(8-ethyl-7-fluoro-3-hydroxynaphthalen-1-yl)-8-fluoro-4-((R)-3-hydroxy-3-methylpiperidin-1-yl)pyrido[4,3-d]pyrimidin-2-yl)oxy)methyl)cyclopropyl)methyl)piperidin-4-yl)methyl)piperazin-1-yl)phenyl)piperidine-2,6-dione] | < 20 | 10 to 100 | > 100
